This experiment deals with T1, DYRK2 (Homo sapiens, UniProt Q92630).
T1 construct: purchased Thermo Fisher Scientific (Life Technologies) SelectScreen
Nature of the experiment: SelectScreen LanthaScreen. It is filed as binding. The settings on record: read-out: % displacement. The method in brief: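 SelectScreen broad panel; activity (Z'LYTE, Adapta) plus binding formats. ATP: Km app for CSF1R Z'LYTE; 10 for CAMK1 Adapta. Readout = % per kinase.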
In general terms: Time-resolved FRET reads energy transfer from a long-lived donor to a nearby acceptor.

Molecules are shown by their SMILES.

T1 sequence (Q92630 whole entry): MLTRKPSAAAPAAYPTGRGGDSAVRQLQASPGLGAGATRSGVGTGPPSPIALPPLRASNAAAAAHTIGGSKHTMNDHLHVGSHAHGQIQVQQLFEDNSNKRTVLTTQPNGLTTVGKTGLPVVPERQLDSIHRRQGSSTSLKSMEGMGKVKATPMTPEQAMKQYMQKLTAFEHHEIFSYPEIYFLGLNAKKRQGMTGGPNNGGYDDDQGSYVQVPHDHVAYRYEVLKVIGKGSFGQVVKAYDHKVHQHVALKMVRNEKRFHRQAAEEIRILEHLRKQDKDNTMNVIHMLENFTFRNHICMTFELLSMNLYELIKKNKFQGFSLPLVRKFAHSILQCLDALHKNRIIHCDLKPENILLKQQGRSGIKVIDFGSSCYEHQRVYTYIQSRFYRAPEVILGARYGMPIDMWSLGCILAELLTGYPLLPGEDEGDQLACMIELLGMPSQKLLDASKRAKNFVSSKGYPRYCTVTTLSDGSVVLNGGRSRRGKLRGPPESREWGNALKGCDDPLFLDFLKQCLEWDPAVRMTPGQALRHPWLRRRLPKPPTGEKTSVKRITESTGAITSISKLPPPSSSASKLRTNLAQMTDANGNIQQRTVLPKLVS

Regarding `CN(C(=O)CN1CCOCC1)c1ccc2sc3c(-c4cccc5c(=O)cc(N6CC7CCC(C6)O7)oc45)cccc3c2c1` [NU5455], the inhibition at 1 µM was 5%.

The values are drawn from publication PMC6934184, “Selective DNA-PKcs inhibition extends the therapeutic index of localized radiotherapy and chemotherapy” (The Journal of Clinical Investigation, 2019).
